From PubChem BioAssay (NCI)
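1) Cells in 96-well plates. 2) Compound, 48 h, 5 concentrations. 3) Linear interpolation between surrounding doses. 4) Unreached endpoint = highest concentration. The concentration for 50% growth inhibition is given as GI50. TGI is the concentration that stops growth completely.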

Key:
Test in all cases: inhibition of tumour cell growth, NCI panel, 48 h
[1] = system: ACHN renal
[2] = system: HCT-116 colon
[3] = system: KM12 colon
[4] = system: NCI-H23 lung
[5] = system: OVCAR-3 ovarian
[6] = system: OVCAR-8 ovarian
[7] = system: SK-MEL-28 melanoma
[8] = system: SNB-19 CNS
[9] = system: M14 melanoma
[10] = system: RPMI-8226 leukemia

SMILES | TGI [1] | TGI [2] | TGI [3] | TGI [4] | TGI [5] | TGI [6] | TGI [7] | TGI [8] | TGI [9] | TGI [10] | GI50 [1] | GI50 [2] | GI50 [3] | GI50 [4] | GI50 [6] | GI50 [9] | GI50 [5] | GI50 [7] | GI50 [8]
CCCCCOCC(O)CO (stereo unspecified) | > 100 µM | > 100 µM | > 100 µM | > 100 µM | > 100 µM | > 100 µM | > 100 µM | > 100 µM | – | – | – | – | – | – | – | – | – | – | –
Cc1cccc(-n2c(N)c(-c3nc4ccccc4[nH]3)sc2=S)c1 | 99 µM | – | 52.2 µM | > 100 µM | 62.1 µM | 72 µM | > 100 µM | > 100 µM | 48.4 µM | 57.4 µM | – | – | – | – | – | – | – | – | –
COc1cc(Oc2c(C)c(Cl)c(OC)c(Cl)c2OC)c2c(c1Cl)COC2=O | 62.9 µM | > 100 µM | > 100 µM | > 100 µM | – | > 100 µM | > 100 µM | > 100 µM | > 100 µM | 13.1 µM | – | – | – | – | – | – | – | – | –
COc1ccc(/C=C2\CN(C(=O)C(Cl)Cl)C/C(=C\c3ccc(OC)cc3)C2=O)cc1 | 4.7 µM | 0.653 µM | 1.16 µM | 4 µM | – | > 100 µM | – | – | – | – | 1.67 µM | 0.234 µM | 0.332 µM | 1.56 µM | 0.881 µM | – | – | – | –
CN1CN(C2OC(CO)C(O)C2O)c2nc(N)[nH]c(=O)c21 (stereo unspecified) | > 100 µM | > 100 µM | > 100 µM | > 100 µM | > 100 µM | > 100 µM | – | > 100 µM | > 100 µM | > 100 µM | – | – | – | – | – | – | – | – | –
CCC(=O)N1C(=O)OCC1C(C)C (stereo unspecified) | > 100 µM | > 100 µM | > 100 µM | > 100 µM | > 100 µM | > 100 µM | – | > 100 µM | > 100 µM | > 100 µM | – | – | – | – | – | – | – | – | –
N#CC(C(=O)C(=O)Nc1ccccc1)c1ccccc1 (stereo unspecified) | > 100 µM | > 100 µM | > 100 µM | > 100 µM | > 100 µM | – | > 100 µM | > 100 µM | > 100 µM | > 100 µM | – | – | – | – | – | – | – | – | –
CCC[CH2][Sn]([CH2]CCC)([O]c1cccc2cccnc12)[O]c1cccc2cccnc12 | 0.853 µM | 0.385 µM | – | 0.52 µM | 0.324 µM | 0.945 µM | 0.332 µM | 0.873 µM | 0.369 µM | – | 0.458 µM | 0.189 µM | – | 0.169 µM | 0.263 µM | 0.186 µM | 0.167 µM | 0.146 µM | 0.312 µM
COc1cc(OC)c(C(=O)c2cccs2)cc1N | > 100 µM | – | > 100 µM | > 100 µM | > 100 µM | > 100 µM | > 100 µM | > 100 µM | > 100 µM | > 100 µM | – | – | – | – | – | – | – | – | –
C[C@]12CCC(=O)C(OC(=O)c3ccc([N+](=O)[O-])cc3)=C1CCC2=O | > 100 µM | > 100 µM | > 100 µM | – | > 100 µM | > 100 µM | > 100 µM | > 100 µM | > 100 µM | > 100 µM | – | – | – | – | – | – | – | – | –
N#Cc1ccc(Cc2ccccn2)cc1Cl | > 100 µM | – | > 100 µM | > 100 µM | – | > 100 µM | > 100 µM | > 100 µM | – | – | – | – | – | – | – | – | – | – | –
O=C(Nc1cccc2c1C(=O)c1c(NC(=O)c3ccccc3)ccc(Nc3cccc4c3C(=O)c3ccccc3C4=O)c1C2=O)c1ccccc1 | > 100 µM | > 100 µM | > 100 µM | – | > 100 µM | > 100 µM | > 100 µM | > 100 µM | > 100 µM | > 100 µM | – | – | – | – | – | – | – | – | –
COc1cc(/C=C(\NC(=O)c2ccccc2)c2nc3ccc4c(c3[nH]2)C(=O)c2ccccc2C4=O)cc(OC)c1OC | – | > 100 µM | > 100 µM | > 100 µM | > 100 µM | > 100 µM | > 100 µM | > 100 µM | > 100 µM | > 100 µM | – | – | – | – | – | – | – | – | –
O=S(=O)(CCN1CCOCC1)Nc1cc(-c2ccc3ncnc(Nc4ccc(F)c(Cl)c4)c3c2)cnc1Cl | > 100 µM | 19.2 µM | 24 µM | > 100 µM | 3.91 µM | 31.2 µM | 8.62 µM | 4.85 µM | 9.42 µM | – | 0.735 µM | 1.38 µM | 2.64 µM | 1.02 µM | 1.67 µM | 0.754 µM | 0.391 µM | 0.297 µM | 0.453 µM
COC(OC)c1cc2c(cc1C=O)OCO2 | > 100 µM | > 100 µM | > 100 µM | > 100 µM | > 100 µM | > 100 µM | > 100 µM | > 100 µM | > 100 µM | – | – | – | – | – | – | – | – | – | –
CN(C)CCN1C(=O)c2cccc3cc([N+](=O)[O-])cc(c23)C1=O | – | 6.7 µM | 4.28 µM | 1.24 µM | 6.27 µM | 2.02 µM | 6.85 µM | 2.12 µM | 2.14 µM | 10.2 µM | – | – | – | – | – | – | – | – | –
CO[C@@H]1C=C[C@@]23c4cc5c(cc4CN(C[C@@H]2O)[C@H]3C1)OCO5 | > 100 µM | – | > 100 µM | > 100 µM | > 100 µM | > 100 µM | > 100 µM | > 100 µM | 31.5 µM | > 100 µM | – | – | – | – | – | – | – | – | –
